Experimental data as given in publication PMC5218480 (PLoS ONE, 2017).

Tested on: MV-4-11 cells
Assay: Gene expression microarray analysis (Affymetrix PrimeView) and GSEA
Format: cell-based, human
Design: RFU PODN (11730768_x_at) / Fold change /veh PODN (11730768_x_at) / RFU LINC00158 (11744669_a_at) / Fold change /veh LINC00158 (11744669_a_at) / RFU DUSP10 (11751237_a_at) / Fold change /veh DUSP10 (11751237_a_at) / RFU ID3 (11757404_x_at) / Fold change /veh ID3 (11757404_x_at) / RFU PLEKHG5 (11737974_s_at) / Fold change /veh PLEKHG5 (11737974_s_at) / RFU LRRC4B (11730491_at) / Fold change /veh LRRC4B (11730491_at) / RFU GIMAP4 (11747438_a_at) / Fold change /veh GIMAP4 (11747438_a_at) / RFU KRT8 (11758183_x_at) / Fold change /veh KRT8 (11758183_x_at) / RFU CNN1 (11734310_a_at) / Fold change /veh CNN1 (11734310_a_at) / RFU VPS37D (11726825_at) / Fold change /veh VPS37D (11726825_at) / RFU C10orf10 (11716522_x_at) / Fold change /veh C10orf10 (11716522_x_at) / RFU KIR2DL2 /// KIR2DL4 /// KIR2DL5A /// KIR2DL5B /// KIR2DS1 /// KIR2DS2 /// KIR2DS3 /// KIR2DS4 /// KIR3DL3 /// KIR3DL3 /// KIR3DS1 (11738374_at) / Fold change /veh KIR2DL2 /// KIR2DL4 /// KIR2DL5A /// KIR2DL5B /// KIR2DS1 /// KIR2DS2 /// KIR2DS3 /// KIR2DS4 /// KIR3DL3 /// KIR3DL3 /// KIR3DS1 (11738374_at) / RFU C1QL1 (11718748_at) / Fold change /veh C1QL1 (11718748_at) / RFU TMPRSS4 (11747572_a_at) / Fold change /veh TMPRSS4 (11747572_a_at) / RFU HAMP (11756126_x_at) / Fold change /veh HAMP (11756126_x_at) / RFU RNFT2 (11725882_a_at) / Fold change /veh RNFT2 (11725882_a_at) / RFU NR4A2 (11747474_a_at) / Fold change /veh NR4A2 (11747474_a_at) / RFU ABCC12 (11746883_a_at) / Fold change /veh ABCC12 (11746883_a_at) / RFU TMEM136 (11760407_x_at) / Fold change /veh TMEM136 (11760407_x_at) / RFU CLDN22 /// WWC2 (11732394_at) / Fold change /veh CLDN22 /// WWC2 (11732394_at) / RFU HLA-DPB1 (11760878_x_at) / Fold change /veh HLA-DPB1 (11760878_x_at) / RFU SPINT1 (11716480_a_at) / Fold change /veh SPINT1 (11716480_a_at) / RFU GAP43 (11754022_s_at) / Fold change /veh GAP43 (11754022_s_at) / RFU A4GNT (11735810_at) / Fold change /veh A4GNT (11735810_at) / RFU PRB3 (11715151_x_at) / Fold change /veh PRB3 (11715151_x_at) / RFU TUBB4B (11761932_at) / Fold change /veh TUBB4B (11761932_at) / RFU CAPN14 (11732068_a_at) / Fold change /veh CAPN14 (11732068_a_at) / RFU TMCC2 (11721928_a_at) / Fold change /veh TMCC2 (11721928_a_at) / RFU IRGQ (11745062_a_at) / Fold change /veh IRGQ (11745062_a_at) / RFU FAM174B (11720279_a_at) / Fold change /veh FAM174B (11720279_a_at) / RFU TMPRSS4 (11748680_a_at) / Fold change /veh TMPRSS4 (11748680_a_at) / RFU FAM212B (11763350_a_at) / Fold change /veh FAM212B (11763350_a_at) / RFU PLEKHG5 (11743358_a_at) / Fold change /veh PLEKHG5 (11743358_a_at) / RFU ZSCAN30 (11745921_a_at) / Fold change /veh ZSCAN30 (11745921_a_at) / RFU CMKLR1 (11741424_a_at) / Fold change /veh CMKLR1 (11741424_a_at) / RFU LOC101060620 /// MAPK8IP1 (11723275_at) / Fold change /veh LOC101060620 /// MAPK8IP1 (11723275_at) / RFU SPTSSB (11747773_x_at) / Fold change /veh SPTSSB (11747773_x_at) / RFU PRSS12 (11739890_at) / Fold change /veh PRSS12 (11739890_at) / RFU BIN1 (11741810_x_at) / Fold change /veh BIN1 (11741810_x_at) / RFU WNT11 (11732464_a_at) / Fold change /veh WNT11 (11732464_a_at) / RFU C10orf10 (11716521_a_at) / Fold change /veh C10orf10 (11716521_a_at) / RFU C5orf56 (11738089_at) / Fold change /veh C5orf56 (11738089_at) / RFU CYB561 (11721691_x_at) / Fold change /veh CYB561 (11721691_x_at) / RFU ANKRD19P (11752326_a_at) / Fold change /veh ANKRD19P (11752326_a_at) / RFU OR2T12 /// OR2T33 /// OR2T8 (11738714_s_at) / Fold change /veh OR2T12 /// OR2T33 /// OR2T8 (11738714_s_at) / RFU VCAN (11748164_a_at) / Fold change /veh VCAN (11748164_a_at) / RFU JSRP1 (11732532_at) / Fold change /veh JSRP1 (11732532_at) / RFU KRTAP10-11 (11738290_x_at) / Fold change /veh KRTAP10-11 (11738290_x_at) / RFU MYO3A (11730013_a_at) / Fold change /veh MYO3A (11730013_a_at) / RFU EBF3 (11725865_a_at) / Fold change /veh EBF3 (11725865_a_at) / RFU CAMK2N1 (11719241_x_at) / Fold change /veh CAMK2N1 (11719241_x_at) / RFU C5orf56 (11738088_a_at) / Fold change /veh C5orf56 (11738088_a_at) / RFU OLFML3 (11715873_a_at) / Fold change /veh OLFML3 (11715873_a_at) / RFU LOC100653217 /// NTM (11731650_a_at) / Fold change /veh LOC100653217 /// NTM (11731650_a_at) / RFU MAPK11 (11762145_a_at) / Fold change /veh MAPK11 (11762145_a_at) / RFU FIZ1 (11724087_x_at) / Fold change /veh FIZ1 (11724087_x_at) / RFU OASL (11726364_x_at) / Fold change /veh OASL (11726364_x_at) / RFU SOX15 (11748057_x_at) / Fold change /veh SOX15 (11748057_x_at) / RFU CD79A (11719716_a_at) / Fold change /veh CD79A (11719716_a_at) / RFU HIST1H1D (11736915_at) / Fold change /veh HIST1H1D (11736915_at) / RFU CASKIN2 (11723855_a_at) / Fold change /veh CASKIN2 (11723855_a_at) / RFU LOC730098 (11760151_x_at) / Fold change /veh LOC730098 (11760151_x_at) / RFU OR4N2 (11742367_at) / Fold change /veh OR4N2 (11742367_at) / RFU PRRT2 (11749266_a_at) / Fold change /veh PRRT2 (11749266_a_at) / RFU SNX32 (11753110_a_at) / Fold change /veh SNX32 (11753110_a_at) / RFU CDHR5 (11726645_a_at) / Fold change /veh CDHR5 (11726645_a_at) / RFU RCAN1 (11760418_a_at) / Fold change /veh RCAN1 (11760418_a_at) / RFU FAM167A (11723789_a_at) / Fold change /veh FAM167A (11723789_a_at) / RFU FAM26E (11764081_at) / Fold change /veh FAM26E (11764081_at) / RFU ISYNA1 (11749810_s_at) / Fold change /veh ISYNA1 (11749810_s_at) / RFU ACY1 (11761880_at) / Fold change /veh ACY1 (11761880_at) / RFU 11764098_at / Fold change /veh 11764098_at / RFU SAMD14 (11745864_x_at) / Fold change /veh SAMD14 (11745864_x_at) / RFU NPB (11741838_a_at) / Fold change /veh NPB (11741838_a_at) / RFU TMPRSS6 (11731388_a_at) / Fold change /veh TMPRSS6 (11731388_a_at) / RFU KRTAP10-2 (11738614_at) / Fold change /veh KRTAP10-2 (11738614_at) / RFU ARHGAP8 /// PRR5-ARHGAP8 (11727945_x_at) / Fold change /veh ARHGAP8 /// PRR5-ARHGAP8 (11727945_x_at) / RFU KRTAP5-7 /// NADSYN1 (11734609_at) / Fold change /veh KRTAP5-7 /// NADSYN1 (11734609_at) / RFU RASL12 (11751679_a_at) / Fold change /veh RASL12 (11751679_a_at) / RFU CDKN2B (11736163_a_at) / Fold change /veh CDKN2B (11736163_a_at) / RFU PRF1 (11729649_at) / Fold change /veh PRF1 (11729649_at) / RFU, ZNF638 /// ZNF638-IT1 / Fold change vs veh, ZNF638 /// ZNF638-IT1 / RFU, PANK3 / Fold change vs veh, PANK3 / RFU, SH3YL1 / Fold change vs veh, SH3YL1 / RFU, ZEB2 / Fold change vs veh, ZEB2 / RFU, NRIP1 / Fold change vs veh, NRIP1 / RFU, PTTG1IP / Fold change vs veh, PTTG1IP / RFU, CAPN2 / Fold change vs veh, CAPN2 / RFU, MED14 / Fold change vs veh, MED14 / RFU, SNORA58 / Fold change vs veh, SNORA58 / RFU, C1orf63 / Fold change vs veh, C1orf63 / RFU, LRRFIP1 / Fold change vs veh, LRRFIP1 / RFU, NDUFAF7 / Fold change vs veh, NDUFAF7 / RFU, SLC12A2 / Fold change vs veh, SLC12A2 / RFU, IBTK / Fold change vs veh, IBTK / RFU, ESF1 / Fold change vs veh, ESF1 / Fold change vs veh, TMEM50B / RFU, TAOK1 / Fold change vs veh, TAOK1 / RFU, ACBD3 / Fold change vs veh, ACBD3 / RFU, TMA16 / Fold change vs veh, TMA16 / RFU, RWDD3 / Fold change vs veh, RWDD3 / RFU, BCAT1 / Fold change vs veh, BCAT1 / RFU, EDEM3 / Fold change vs veh, EDEM3 / RFU, TMEM33 / Fold change vs veh, TMEM33 / RFU, WDR75 / Fold change vs veh, WDR75 / RFU, AHCTF1 / Fold change vs veh, AHCTF1 / RFU, TFRC / Fold change vs veh, TFRC / RFU, ZDHHC17 / Fold change vs veh, ZDHHC17 / RFU, NOM1 / Fold change vs veh, NOM1 / RFU, ARL8B / Fold change vs veh, ARL8B / RFU, ZBTB11 / Fold change vs veh, ZBTB11 / RFU, TAMM41 / Fold change vs veh, TAMM41 / RFU, KIAA1704 /// LOC100996395 / Fold change vs veh, KIAA1704 /// LOC100996395 / RFU, ING1 / Fold change vs veh, ING1 / RFU, TRMT61B / Fold change vs veh, TRMT61B / RFU, FUBP3 / Fold change vs veh, FUBP3 / RFU, TP53 / Fold change vs veh, TP53 / RFU, TNKS2 / Fold change vs veh, TNKS2 / RFU, ZFP14 / Fold change vs veh, ZFP14 / RFU, ACTR2 / Fold change vs veh, ACTR2 / RFU, PPP3R1 / Fold change vs veh, PPP3R1 / RFU, PIK3R1 / Fold change vs veh, PIK3R1 / RFU, HNRNPA1 / Fold change vs veh, HNRNPA1 / RFU, RNF170 / Fold change vs veh, RNF170 / RFU, ZNF28 / Fold change vs veh, ZNF28 / RFU, RNGTT / Fold change vs veh, RNGTT / RFU, OGT / Fold change vs veh, OGT / RFU, BRD1 / Fold change vs veh, BRD1 / RFU, MARS / Fold change vs veh, MARS / RFU, ZNF655 / Fold change vs veh, ZNF655 / RFU, FAHD1 / Fold change vs veh, FAHD1 / RFU, BDP1 / Fold change vs veh, BDP1 / RFU, LRRCC1 / Fold change vs veh, LRRCC1 / RFU, ARID1A / Fold change vs veh, ARID1A / RFU, ZNF146 / Fold change vs veh, ZNF146 / RFU, ZNF330 / Fold change vs veh, ZNF330 / RFU, GPN3 / Fold change vs veh, GPN3 / RFU, C9orf123 / Fold change vs veh, C9orf123 / RFU, N4BP2L2 / Fold change vs veh, N4BP2L2 / RFU, ARFIP1 / Fold change vs veh, ARFIP1 / RFU, FAM179B / Fold change vs veh, FAM179B / RFU, BCL10 / Fold change vs veh, BCL10 / RFU, UHRF1BP1L / Fold change vs veh, UHRF1BP1L / RFU, BET1 / Fold change vs veh, BET1 / RFU, CNOT2 / Fold change vs veh, CNOT2 / RFU, ZNF268 / Fold change vs veh, ZNF268 / Fold change vs veh, ZNF507 / RFU, DGCR2 / Fold change vs veh, DGCR2 / RFU, WDSUB1 / Fold change vs veh, WDSUB1 / Fold change vs veh, HSP90B1 /// MIR3652 / RFU, ADSS / Fold change vs veh, ADSS / RFU, GK / Fold change vs veh, GK / RFU, ZNF148 / Fold change vs veh, ZNF148 / RFU, TAF9 / Fold change vs veh, TAF9 / RFU, SLC1A5 / Fold change vs veh, SLC1A5 / RFU, SLMO2 / Fold change vs veh, SLMO2 / RFU, ABCC4 / Fold change vs veh, ABCC4 / RFU, LOC101060439 /// RAP1B / Fold change vs veh, LOC101060439 /// RAP1B / RFU, RFX7 / Fold change vs veh, RFX7 / RFU, GTPBP10 / Fold change vs veh, GTPBP10 / RFU, CNEP1R1 / Fold change vs veh, CNEP1R1 / RFU, BIVM-ERCC5 /// ERCC5 / Fold change vs veh, BIVM-ERCC5 /// ERCC5 / RFU, ILF3 / Fold change vs veh, ILF3 / RFU 11762660_at / Fold change /veh 11762660_at / RFU VCAN (11757783_s_at) / Fold change /veh VCAN (11757783_s_at) / RFU DDX43 (11728927_at) / Fold change /veh DDX43 (11728927_at) / RFU KRT8 (11758188_x_at) / Fold change /veh KRT8 (11758188_x_at) / RFU NKD1 (11759106_at) / Fold change /veh NKD1 (11759106_at) / RFU SRD5A1 (11742802_a_at) / Fold change /veh SRD5A1 (11742802_a_at) / RFU TPSAB1 /// TPSB2 (11721975_s_at) / Fold change /veh TPSAB1 /// TPSB2 (11721975_s_at) / RFU GSTM3 (11746129_a_at) / Fold change /veh GSTM3 (11746129_a_at) / RFU IL23R (11737362_x_at) / Fold change /veh IL23R (11737362_x_at) / RFU TMEM51 (11727254_a_at) / Fold change /veh TMEM51 (11727254_a_at) / RFU PIWIL2 (11732686_x_at) / Fold change /veh PIWIL2 (11732686_x_at) / RFU ORM1 (11744905_x_at) / Fold change /veh ORM1 (11744905_x_at) / RFU CCDC152 (11743942_at) / Fold change /veh CCDC152 (11743942_at) / RFU ECM1 (11717891_a_at) / Fold change /veh ECM1 (11717891_a_at) / RFU IL23R (11748794_a_at) / Fold change /veh IL23R (11748794_a_at) / RFU TNFAIP8L3 (11732012_x_at) / Fold change /veh TNFAIP8L3 (11732012_x_at) / RFU MBOAT4 (11741988_at) / Fold change /veh MBOAT4 (11741988_at) / RFU 11764193_at / Fold change /veh 11764193_at / RFU TMEM53 (11763286_at) / Fold change /veh TMEM53 (11763286_at) / RFU MAGEB2 (11727129_at) / Fold change /veh MAGEB2 (11727129_at) / RFU TMEM200A (11744735_a_at) / Fold change /veh TMEM200A (11744735_a_at) / RFU CCDC152 (11751479_a_at) / Fold change /veh CCDC152 (11751479_a_at) / RFU FAM211A (11726209_a_at) / Fold change /veh FAM211A (11726209_a_at) / RFU RGS16 (11746705_a_at) / Fold change /veh RGS16 (11746705_a_at) / RFU VCAN (11755009_s_at) / Fold change /veh VCAN (11755009_s_at) / RFU RHOB (11743442_s_at) / Fold change /veh RHOB (11743442_s_at) / RFU RGS16 (11720943_a_at) / Fold change /veh RGS16 (11720943_a_at) / RFU RGS16 (11720944_at) / Fold change /veh RGS16 (11720944_at) / RFU, VPS4B / Fold change vs veh, VPS4B / RFU, CREB1 / Fold change vs veh, CREB1 / RFU, DNAJC13 / Fold change vs veh, DNAJC13 / RFU, GNAQ / Fold change vs veh, GNAQ / RFU, CDK5R1 / Fold change vs veh, CDK5R1 / RFU, ZRANB3 / Fold change vs veh, ZRANB3 / RFU, CUL4A / Fold change vs veh, CUL4A / RFU, CCNY / Fold change vs veh, CCNY / RFU, UFL1 / Fold change vs veh, UFL1 / RFU, COG3 / Fold change vs veh, COG3 / RFU, DIAPH2 / Fold change vs veh, DIAPH2 / RFU, SKA2 / Fold change vs veh, SKA2 / RFU, AFF3 / Fold change vs veh, AFF3 / RFU, LMF1 / Fold change vs veh, LMF1 / RFU, IPO11 / Fold change vs veh, IPO11 / RFU, DFFB / Fold change vs veh, DFFB / RFU, FOXP1 / Fold change vs veh, FOXP1 / RFU, CARD8 / Fold change vs veh, CARD8 / RFU, STRN3 / Fold change vs veh, STRN3 / RFU, ADK / Fold change vs veh, ADK / RFU, RASSF2 / Fold change vs veh, RASSF2 / RFU, WIPF1 / Fold change vs veh, WIPF1 / RFU, LARP1B / Fold change vs veh, LARP1B / RFU, RASA1 / Fold change vs veh, RASA1 / RFU, RB1 / Fold change vs veh, RB1 / RFU, PPFIA1 / Fold change vs veh, PPFIA1 / RFU, MAT2A / Fold change vs veh, MAT2A / RFU, CCT5 / Fold change vs veh, CCT5 / RFU, WDR92 / Fold change vs veh, WDR92 / RFU, CUX1 / Fold change vs veh, CUX1 / RFU, TTC7A / Fold change vs veh, TTC7A / RFU, TMEM135 / Fold change vs veh, TMEM135 / RFU, DEPTOR / Fold change vs veh, DEPTOR / RFU, CPM / Fold change vs veh, CPM / RFU, DNAJB6 / Fold change vs veh, DNAJB6 / RFU, CACNA2D3 / Fold change vs veh, CACNA2D3 / RFU, DTX4 / Fold change vs veh, DTX4 / RFU, TFCP2 / Fold change vs veh, TFCP2 / RFU, GMCL1 /// GMCL1P1 / Fold change vs veh, GMCL1 /// GMCL1P1 / RFU, AEBP2 / Fold change vs veh, AEBP2 / RFU, SNHG1 /// SNORD22 /// SNORD25 /// SNORD26 /// SNORD27 /// SNORD28 /// SNORD29 /// SNORD31 / Fold change vs veh, SNHG1 /// SNORD22 /// SNORD25 /// SNORD26 /// SNORD27 /// SNORD28 /// SNORD29 /// SNORD31 / Fold change (Aza/veh), C12orf56 (ProbeSet 11735607_a_at) / Fold change (ACY-1035/veh), C12orf56 (ProbeSet 11735607_a_at) / Fold change (Aza/veh), FGFR1OP (ProbeSet 11751329_s_at) / Fold change (ACY-1035/veh), FGFR1OP (ProbeSet 11751329_s_at) / Fold change (Aza/veh), VPS36 (ProbeSet 11739960_a_at) / Fold change (ACY-1035/veh), VPS36 (ProbeSet 11739960_a_at) / RFU SYPL1 (11715823_x_at) / Fold change /veh SYPL1 (11715823_x_at) / RFU IGFBP7 (11715501_s_at) / Fold change /veh IGFBP7 (11715501_s_at) / RFU REEP3 (11722064_at) / Fold change /veh REEP3 (11722064_at) / RFU IGLL1 (11728026_x_at) / Fold change /veh IGLL1 (11728026_x_at): dose or concentration left out as unconfirmed
Conditions: MV-4-11 cells, 48 hours

For `Nc1ncn([C@@H]2O[C@H](CO)[C@@H](O)[C@H]2O)c(=O)n1` [azacitidine], the “Fold change /veh SPTSSB (11747773_x_at)” value was 1.09.
